Measured values taken from US20040254162A1, “Oxazolidinone derivatives as antimicrobials” (priority 2001, published 2004).
In brackets after ≈: the same amount, converted by molar mass. Several values for one entry are separate records, joined by “and”; a condition that tells them apart may be missing. Equal values may be shown once.

Assays:
Ent. faecalis ATCC 29212 = experiment: MIC, agar incorporation method; conditions: agar incorporation
MRSA 15187 = experiment: MIC, agar incorporation method; conditions: agar incorporation
MRSA 33 = experiment: MIC, agar incorporation method; conditions: agar incorporation
MRSA 562 [1] = experiment: In vivo activity against MRSA 562 (ED50); design: species or system Methicillin Resistant Staphylococcus aureus; conditions: PO; MRSA 562 infection
VRE 6A (Ent. faecium 6A) = experiment: MIC, agar incorporation method; conditions: agar incorporation
Strep. pne. ATCC 6303 = experiment: MIC, agar incorporation method; conditions: agar incorporation
S. aureus ATCC 25923 = experiment: MIC, agar incorporation method; conditions: agar incorporation
Strep. pyog. ATCC 19615 = experiment: MIC, agar incorporation method; conditions: agar incorporation
S. pneum AB 34 = experiment: MIC, agar incorporation method; conditions: agar incorporation
MRSA 562 [2] = experiment: MIC, agar incorporation method; conditions: for MIC: MRSA 562, Table 5; for MIC MRSA 562: agar incorporation, Table 1
S. aureus = experiment: Summary of in vitro activity (MIC); conditions: S. aureus; for MIC50 / MIC90: Number 8
S. pneumoniae = experiment: Summary of in vitro activity (MIC); conditions: S. pneumoniae; for MIC50 / MIC90: Number 19
G +ve bacteria = experiment: Summary of in vitro activity (MIC); conditions: for MIC50 / MIC90: G +ve, Number 49; for Geometric Mean of in vitro activity (MIC): Gram + ve
E. faecalis = experiment: Summary of in vitro activity (MIC); conditions: E. faecalis; for MIC50 / MIC90: Number 7

Row | SMILES | MIC E. faecalis 29212 (Ent. faecalis ATCC 29212) | MIC MRSA 15187 (MRSA 15187) | MIC MRSA 33 (MRSA 33) | MIC VRE 6A (VRE 6A (Ent. faecium 6A)) | MIC S. pneum 6303 (Strep. pne. ATCC 6303) [µg/mL] | MIC S. aureus 25923 (S. aureus ATCC 25923) | MIC S. pyogenes 19615 (Strep. pyog. ATCC 19615) | MIC S. pneum AB 34 (S. pneum AB 34) | MIC (MRSA 562 [2]) [µg/mL] | MIC MRSA 562 (MRSA 562 [2]) [µg/mL] | ED50 (mg/kg body weight) PO (MRSA 562 [1]) [mg/kg body weight] | other results
1 | CC(=O)NC[C@H]1CN(c2ccc(N3CCN(C(=O)c4ccc(Br)o4)CC3)c(F)c2)C(=O)O1 [Compound No. 04] | 2 µg/mL (≈ 3.93 µM) | 2 µg/mL (≈ 3.93 µM) | 2 µg/mL (≈ 3.93 µM) | 1 µg/mL (≈ 1.96 µM) | 1 (≈ 1.96 µM) | 2 µg/mL (≈ 3.93 µM) | 2 µg/mL (≈ 3.93 µM) | 1 µg/mL (≈ 1.96 µM) | – | – | >25 | –
2 | CC(=O)NC[C@H]1CN(c2ccc(N3CCN(C(=O)C(=O)c4cccs4)CC3)c(F)c2)C(=O)O1 [Compound No. 07, (S)-N[[3-[3-Fluoro-4-[N-1[4-{2-(2-thienyl)dicarbonyl}]piperazinyl]phenyl]2-oxo-5-oxazolidinyl]methyl]acetamide] | 2 µg/mL (≈ 4.21 µM) | 2 µg/mL (≈ 4.21 µM) | 2 µg/mL (≈ 4.21 µM) | 2 µg/mL (≈ 4.21 µM) | 2 (≈ 4.21 µM) | 2 µg/mL (≈ 4.21 µM) | 0.5 µg/mL (≈ 1.05 µM) | 2 µg/mL (≈ 4.21 µM) | 2 (≈ 4.21 µM) | 2 (≈ 4.21 µM) | >25 | –
3 | CC(=O)NC[C@H]1CN(c2ccc(N3CCN(Cc4ccc(Br)s4)CC3)c(F)c2)C(=O)O1 [Compound No. 27] | 2 µg/mL (≈ 3.91 µM) | 2 µg/mL (≈ 3.91 µM) | 2 µg/mL (≈ 3.91 µM) | 4 µg/mL (≈ 7.82 µM) | 2 (≈ 3.91 µM) | 2 µg/mL (≈ 3.91 µM) | 1 µg/mL (≈ 1.96 µM) | 0.5 µg/mL (≈ 0.978 µM) | – | 2 (≈ 3.91 µM) | – | –
4 | CC(=O)NC[C@H]1CN(c2ccc(N3C[C@@H]4[C@H](C3)[C@H]4N(C)Cc3ccc([N+](=O)[O-])s3)c(F)c2)C(=O)O1 [Compound No. 34, (S)-N-[[3-[3-Fluoro[4-[3-(1α,5α,6α)-6-[N-(5-nitro-2-thienylmethyl)-N-methyl]-amino]-3-azabicyclo-[3.1.0]hexane]phenyl]-2-oxo-5-oxazolidinyl]methyl]acetamide] | 1 µg/mL (≈ 1.99 µM) | 1 µg/mL (≈ 1.99 µM) | 1 µg/mL (≈ 1.99 µM) | 1 µg/mL (≈ 1.99 µM) | 4 (≈ 7.94 µM) | 1 µg/mL (≈ 1.99 µM) | 2 µg/mL (≈ 3.97 µM) | 4 µg/mL (≈ 7.94 µM) | – | 1 (≈ 1.99 µM) | – | –
5 | CC(=O)NC[C@H]1CN(c2ccc(N3C[C@@H]4[C@@H](CN(C)C(=O)Cc5cccs5)[C@@H]4C3)c(F)c2)C(=O)O1 [Compound No. 38, (S)-N-[[3-[3-Fluoro[4-[3-(1α,5α,6α)-6-[N-(2-thiopheneacetyl)-N-methyl]amino-methyl]-3-azabicyclo-[3.1.0]hexane]phenyl]-2-oxo-5-oxazolidinyl]methyl]acetamide] | 4 µg/mL (≈ 7.99 µM) | 4 µg/mL (≈ 7.99 µM) | 4 µg/mL (≈ 7.99 µM) | 4 µg/mL (≈ 7.99 µM) | 1 (≈ 2 µM) | 4 µg/mL (≈ 7.99 µM) | 1 µg/mL (≈ 2 µM) | 1 µg/mL (≈ 2 µM) | – | 4 (≈ 7.99 µM) | – | –
6 | CC(=O)NC[C@H]1CN(c2ccc(N3CC4C(CN(C)Cc5ccc([N+](=O)[O-])s5)C4C3)c(F)c2)C(=O)O1 (stereo partly drawn) [Compound No. 39, (S)-N-[[3-[3-Fluoro[4-[3-(1α,5α,6α)-6-[N-(5-nitro-2-thienylmethyl)-N-methyl]-amino-methyl]-3-azabicyclo-[3.1.0]hexane]phenyl]-2-oxo-5-oxazolidinyl]methyl]acetamide] | 2 µg/mL (≈ 3.86 µM) | 8 µg/mL (≈ 15.5 µM) | 4 µg/mL (≈ 7.73 µM) | 8 µg/mL (≈ 15.5 µM) | 0.5 (≈ 0.966 µM) | 8 µg/mL (≈ 15.5 µM) | 0.5 µg/mL (≈ 0.966 µM) | 0.5 µg/mL (≈ 0.966 µM) | – | 8 (≈ 15.5 µM) | – | –
7 | CC(=O)NC[C@H]1CN(c2ccc(N3CC4C(CN(C)Cc5ccc([N+](=O)[O-])o5)C4C3)c(F)c2)C(=O)O1 (stereo partly drawn) [Compound No. 40, (S)-N-[[3-[3-Fluoro[4-[3-(1α,5α,6α)-6-[N-(5-nitro-2-furylmethyl)-N-methyl]amino-methyl]-3-azabicyclo-[3.1.0]hexane]phenyl]-2-oxo-5-oxazolidinyl]methyl]acetamide] | 2 µg/mL (≈ 3.99 µM) | 2 µg/mL (≈ 3.99 µM) | 2 µg/mL (≈ 3.99 µM) | 4 µg/mL (≈ 7.98 µM) | – | 2 µg/mL (≈ 3.99 µM) | 0.125 µg/mL (≈ 0.249 µM) | 2 µg/mL (≈ 3.99 µM) | – | 1 (≈ 1.99 µM) | – | Geometric Mean of in vitro activity (MIC) (S. aureus): 1.83 µg/mL; MIC50 (S. aureus): 2 µg/mL (≈ 3.99 µM); MIC90 (S. aureus): 4 µg/mL (≈ 7.98 µM); Geometric Mean of in vitro activity (MIC) (S. pneumoniae): 0.71 µg/mL; MIC50 (S. pneumoniae): 1 µg/mL (≈ 1.99 µM); MIC90 (S. pneumoniae): 1 µg/mL (≈ 1.99 µM); MIC50 (G +ve bacteria): 1 µg/mL (≈ 1.99 µM); MIC90 (G +ve bacteria): 2 µg/mL (≈ 3.99 µM); Geometric Mean of in vitro activity (MIC) (G +ve bacteria): 0.93 µg/mL; Geometric Mean of in vitro activity (MIC) (E. faecalis): 2.38 µg/mL; MIC50 (E. faecalis): 2 µg/mL (≈ 3.99 µM); MIC90 (E. faecalis): 4 µg/mL (≈ 7.98 µM)
8 | CC(=O)NC[C@H]1CN(c2ccc(N3CCC(N(C)Cc4ccc([N+](=O)[O-])o4)CC3)c(F)c2)C(=O)O1 [Compound No. 50, (S)-N-[[3-[4-[4-(N-methyl-N-2-furyl(5-nitro)methyl)aminopiperidine-1-yl]-3-fluorophenyl]-2-oxo-oxazolidin-5-yl]methyl]acetamide] | 0.5 µg/mL (≈ 1.02 µM) | 1 µg/mL (≈ 2.04 µM) | 1 µg/mL (≈ 2.04 µM) | 0.25 µg/mL (≈ 0.511 µM) | 0.5 (≈ 1.02 µM) | 1 µg/mL (≈ 2.04 µM) | 0.125 µg/mL (≈ 0.255 µM) | 2 µg/mL (≈ 4.09 µM) | 0.5 (≈ 1.02 µM) | 0.5 (≈ 1.02 µM) | – | Geometric Mean of in vitro activity (MIC) (S. aureus): 1 µg/mL; MIC50 (S. aureus): 1 µg/mL (≈ 2.04 µM); MIC90 (S. aureus): 2 µg/mL (≈ 4.09 µM); Geometric Mean of in vitro activity (MIC) (S. pneumoniae): 1.41 µg/mL; MIC50 (S. pneumoniae): 1 µg/mL (≈ 2.04 µM); MIC90 (S. pneumoniae): 2 µg/mL (≈ 4.09 µM); MIC50 (G +ve bacteria): 1 µg/mL (≈ 2.04 µM); MIC90 (G +ve bacteria): 2 µg/mL (≈ 4.09 µM); Geometric Mean of in vitro activity (MIC) (G +ve bacteria): 0.72 µg/mL; Geometric Mean of in vitro activity (MIC) (E. faecalis): 0.42 µg/mL; MIC50 (E. faecalis): 0.5 µg/mL (≈ 1.02 µM); MIC90 (E. faecalis): 1 µg/mL (≈ 2.04 µM)
9 | CC1(C)S[C@@H]2[C@H](NC(=O)Cc3ccccc3)C(=O)N2[C@H]1C(=O)O [Penicillin G, reference compound] | – | – | – | – | – | – | – | – | – | – | – | Geometric Mean of in vitro activity (MIC) (S. pneumoniae): 2.16 µg/mL; MIC50 (S. pneumoniae): 4 µg/mL (≈ 12 µM); MIC90 (S. pneumoniae): 32 µg/mL (≈ 95.7 µM); MIC50 (G +ve bacteria): 4 µg/mL (≈ 12 µM); MIC90 (G +ve bacteria): 32 µg/mL (≈ 95.7 µM); Geometric Mean of in vitro activity (MIC) (G +ve bacteria): 0.76 µg/mL

The next lines start with results.

Row | MIC E. faecalis 29212 (Ent. faecalis ATCC 29212) | MIC MRSA 15187 (MRSA 15187) | MIC MRSA 33 (MRSA 33) | MIC VRE 6A (VRE 6A (Ent. faecium 6A)) | MIC S. pneum 6303 (Strep. pne. ATCC 6303) [µg/mL] | MIC S. aureus 25923 (S. aureus ATCC 25923) | MIC S. pyogenes 19615 (Strep. pyog. ATCC 19615) | MIC S. pneum AB 34 (S. pneum AB 34) | MIC (MRSA 562 [2]) [µg/mL] | MIC MRSA 562 (MRSA 562 [2]) [µg/mL] | SMILES | ED50 (mg/kg body weight) PO (MRSA 562 [1]) [mg/kg body weight] | other results
10 | 8 µg/mL (≈ 17.4 µM) | 2 µg/mL (≈ 4.36 µM) | 2 µg/mL (≈ 4.36 µM) | 8 µg/mL (≈ 17.4 µM) | 8 (≈ 17.4 µM) | 2 µg/mL (≈ 4.36 µM) | 8 µg/mL (≈ 17.4 µM) | 8 µg/mL (≈ 17.4 µM) | – | 1 (≈ 2.18 µM) | CC(=O)NC[C@H]1CN(c2ccc(N3CCN(Cc4ccc(C=NN)o4)CC3)c(F)c2)C(=O)O1 [Compound No. 62, (S)-N-[[3-[3-Fluoro-4[N-1-[4-{2-furyl-(5-hydrazone)-methyl}]-piperazinyl]-phenyl]-2-oxo-5-oxazolidinyl]-methyl]acetamide] | – | –
11 | 16 µg/mL (≈ 31.8 µM) | 2 µg/mL (≈ 3.98 µM) | 2 µg/mL (≈ 3.98 µM) | 16 µg/mL (≈ 31.8 µM) | 8 (≈ 15.9 µM) | 2 µg/mL (≈ 3.98 µM) | 8 µg/mL (≈ 15.9 µM) | 8 µg/mL (≈ 15.9 µM) | – | 2 (≈ 3.98 µM) | CC(=O)NC[C@H]1CN(c2ccc(N3CCN(Cc4ccc(C5OCCCO5)o4)CC3)c(F)c2)C(=O)O1 [Compound No. 66] | – | –
12 | – | – | – | – | – | – | – | – | 2 (≈ 4.35 µM) | – | CC(=O)NC[C@H]1CN(c2ccc(N3CCN(Cc4ccc(NC=O)o4)CC3)c(F)c2)C(=O)O1 [Compound No. 67] | >25 | –
13 | 8 µg/mL and 4 µg/mL | 8 µg/mL and 4 µg/mL | 8 µg/mL and 4 µg/mL | 8 µg/mL and 4 µg/mL | 4 (≈ 8.22 µM) | 8 µg/mL and 4 µg/mL | 4 µg/mL and 2 µg/mL | 2 µg/mL and 4 µg/mL | 4 (≈ 8.22 µM) | – | CC(=O)NC[C@H]1CN(c2ccc(N3CC4C(C3)C4N(C)C(=O)Cc3cccs3)c(F)c2)C(=O)O1 (stereo partly drawn) [Compound No. 71, (S)-N-[[3-[3-Fluoro[4-[3-(1α,5α,6α)-6-[N-(2-thiopheneacetyl)-N-methyl]amino]-3-azabicyclo-[3.1.0]hexane]phenyl]-2-oxo-5-oxazolidinyl]methyl]acetamide] | >25 | –
